Assay results as given in PMC11643612, “Insights into the Metabolism, Disposition, and Quantitative Profile of mGlu5 NAM AE90015 with Metabolite Identification and a Novel Integration Method” (Molecules, 2024).

Key:
[1] = system: mGlu3; conditions: cited from earlier work
[2] = system: mGlu7; conditions: cited from earlier work
[3] = rat PK, in-house experiment; conditions: in vivo
[4] = system: mGlu2; conditions: cited from earlier work
[5] = system: mGlu4; conditions: cited from earlier work
[6] = in vivo rat oral dose study: metabolism, excretion and disposition (plasma, tissues, urine, bile; UV/mass integration)
Procedure: The in vivo rat studies were performed following the administration of a 30 mg/kg dose of AE90015. Plasma, urine, and tissue samples were collected from two rats in a metabolic cage, and bile samples were collected from two bile duct-cannulated rats. The urine and bile samples were collected from 0 to 24 h post-administration. The tissues and plasma samples were collected at 24 h post-administration. This study was carried out to explore all metabolites, particularly the phase II metabolites, and to identify the metabolites being excreted and understand their excretion pathways. Additionally, determining whether AE90015 itself is directly cleared through urine and bile is crucial for explaining its pharmacokinetic clearance value in rats.
For quantification, a photodiode array detector connected to UPLC in parallel to the LTQ-Obitrap mass spectrometer, detecting at 260 nm absorption, and combined with mass response was used to quantitatively measure, sometimes with compromised accuracy, the metabolites and AE90015 in all of the samples. For well-separated metabolites in the liquid chromatogram, their UV 260 nm absorption peak integration represented their molar response. When the metabolites’ UV peaks overlap with each other, UV integration is not feasible, but the integration of extracted metabolite mass is much easier. […] It was assumed that each metabolite’s UV integration-to-mass integration ratio is equal, allowing for a good approximation within the same category of metabolites. This assumption was validated by many of the metabolites measured in this study and previous studies. When no UV integration is available, multiplying the mass integration by the […] yielded in the UV integration.
The distribution of normalized integration values for the parent drug AE90015 and its metabolites in plasma, urine, bile, and tissues, including liver, brain, and kidney, is summarized in Table 1. […] In this experiment, all amounts of AE90015 and its metabolites in the plasma, urine, and bile samples were obtained from UV responses, which were adjusted to their total volume in the rat. For the liver, brain, and kidney tissues, these amounts were normalized to tissue weight. The sample dilution factors used in the analysis were also converted back.
The values in Table 1 represent the relative molar amounts of each metabolite of AE90015 remaining in the plasma and tissues or excreted in urine or bile 24 h post-dose. These values were derived either directly from UV 260 nm integration or from mass response integration, multiplied by the UV/mass ratio for each metabolite category, and further adjusted to plasma, urine volume, or tissue weight. The details of the calculation methods are provided in Section 3.
Two rats weighing 0.266 and 0.252 kg received 30 mg/kg oral doses of AE90015, formulated with hydroxypropyl-beta-cyclodextrin, for the bile collection study, which was carried out for 0–24 h, and a total of 33.6 mL of bile was pooled together from the 2 rats. The two rats used for the bile collection study underwent bile duct cannulation surgery 2 days before the AE90015 dosing and bile collection. Before the surgery, the rats were anesthetized with ketamine (43 mg/kg body weight) and xylazine (8.7 mg/kg body weight). After surgical skin preparation, two catheters (intestinal and biliary) were passed subcutaneously from the dorsal scapular region into the abdomen. Through ventral midline abdominal incision, the bile duct was isolated and ligated, and the biliary catheter was inserted into the bile duct and secured. The intestinal catheter tip was placed into the duodenum just distal to the entry point of the bile duct and secured by the placement of a purse string suture. […]

[7] = system: 79 other targets; conditions: cited from earlier work
[8] = system: mGlu1; conditions: cited from earlier work
[9] = system: human mGlu5 receptor; set-up: method as in PMID 34469715; conditions: NAM; cited from earlier work
[10] = rats (n = 2), 24 h after 30 mg/kg oral, % of all AE90015-related material

For Cc1cncc(C(=O)NC23CC4CC(CC(NC(=O)c5ccccn5)(C4)C2)C3)n1 [AE90015], the “efficacy or affinity for mGlu3” value [1] is given as “no significant efficacy or affinity”, the “efficacy or affinity for mGlu7” value [2] is given as “no significant efficacy or affinity” and the clearance [3] is given as 38 mL/min/kg. For the same compound, the “efficacy or affinity for mGlu2” value [4] was “no significant efficacy or affinity”, the “efficacy or affinity for mGlu4” value [5] was “no significant efficacy or affinity” and the “Excrete from Bile, normalized relative molar amount” value ([6]; bile duct-cannulated rats (n = 2), bile 0-24 h after 30 mg/kg oral, % of all AE90015-related material) was 0.39%. The “share of total clearance by mono-oxidation (primary clearance pathway)” value ([6]; rat, 30 mg/kg oral, 24 h) was 96%, the “direct excretion via renal and bile routes” value ([6]; rat, 30 mg/kg oral, 24 h, unchanged parent) was 0.5% and the “Remain in Brain, normalized relative molar amount” value [6, 10] was 0.66%. For the same compound, the “Remain in Kidney, normalized relative molar amount” value [6, 10] was 0.16%, the “Remain in Liver, normalized relative molar amount” value [6, 10] was 0.98% and the “Remain in Plasma, normalized relative molar amount” value [6, 10] was 1.47%. The “Excrete from Urine, normalized relative molar amount” value ([6]; rats (n = 2), urine 0-24 h after 30 mg/kg oral, % of all AE90015-related material) was 0.10%, the “selectivity for mGlu5, preference compared to the 79 other targets tested” value [7] was “over 1000 fold” and the “efficacy or affinity for mGlu1” value [8] was “no significant efficacy or affinity”. The affinity [9] was 18.5 nM.
